Data set [1] deals with CHGA119 patient-derived primary gastric tumor xenograft model. The experiment in a line: Antitumor activity and body weight in CHGA119 patient-derived xenograft. (A xenograft is tissue or cells of one species grown in another, often human tumour cells in immunodeficient mice.)
From the text: In these studies, CHGA119 tumor fragments in size of 2mm ×2mm×2mm were implanted subcutaneously (s.c.) into female nu/nu athymic mice. […] Tumors were calipered twice a week.
The target in data set [2] is T1, complement factor Clq (Homo sapiens, UniProt P02745+P02746+P02747).
T1 construct: purchased Sigma C1740-1mg
The experiment in a line: Clq binding ELISA. The settings on record: antibody coated 25 to 0.02 μg/ml. Here is the method: In additional studies, the ability of the unconjugated anti-FGFR2 antibodies to bind the complement factor Clq was evaluated. The binding of the complement factor Clq is the initial step leading to complement dependent cytotoxicity (CDC) and cell lysis in vivo. In these studies the surface of the wells of 96-well microtiterplates (Nunc, Maxisorp, catalog # 439454) were coated with serial dilutions of the antibodies 12433, 12425, N297A_12425 and 10164 over night at 4° C. in the dark (all in a concentration range from 25 to 0.02 μg/ml). The commercially available antibody, Rituximab served as a positive control. In order to monitor the amount of bound antibody analyte on the microtiterplate, this procedure was performed twice per plate utilizing the second dilution (in triplicate) for determining the coating efficacy of the analyte to the plate. Clq binding was quantified by adding a constant concentration of Clq (Sigma; Complement component Clq catalog # C1740-1mg) and detected using a polyclonal goat-anti-human Clq antibody conjugated to Horse Radish Peroxidase HRP (AbD Serotec; Sheep Anti-Human Clq:HRP; Catalogue number 2221-5004P). The control of the coating efficiency was determined in the second dilution series with a peroxidase-conjugated goat-anti-human IgG antibody fragment (Jackson ImmunoResearch; catalog # 109-036-003; AffiniPure F(ab′2) fragment Goat Anti-Human IgG (H+L)). […]

Where [3] appears, read: CHGA119-tumor bearing mice, ADCs 10 mg/kg i.v. q2wk, BGJ398 10 mg/kg p.o. qd.

Consider two compounds from patent publication US20190345250A1, “ANTIBODY DRUG CONJUGATES” (NOVARTIS AG, priority 2013, published 2019).

T1 sequence (P02745 23-245): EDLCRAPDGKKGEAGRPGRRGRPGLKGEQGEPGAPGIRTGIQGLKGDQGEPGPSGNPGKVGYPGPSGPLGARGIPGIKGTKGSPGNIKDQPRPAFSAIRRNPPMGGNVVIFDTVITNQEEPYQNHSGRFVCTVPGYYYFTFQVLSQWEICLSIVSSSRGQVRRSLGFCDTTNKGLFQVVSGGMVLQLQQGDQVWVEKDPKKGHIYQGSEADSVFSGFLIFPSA
T1 sequence (P02746 28-253): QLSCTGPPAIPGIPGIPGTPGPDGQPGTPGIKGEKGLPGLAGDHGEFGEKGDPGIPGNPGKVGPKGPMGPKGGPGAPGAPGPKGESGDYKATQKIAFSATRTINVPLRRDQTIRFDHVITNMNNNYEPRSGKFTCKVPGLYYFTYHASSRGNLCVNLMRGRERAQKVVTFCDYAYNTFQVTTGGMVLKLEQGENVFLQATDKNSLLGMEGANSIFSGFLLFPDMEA
T1 sequence (P02747 29-245): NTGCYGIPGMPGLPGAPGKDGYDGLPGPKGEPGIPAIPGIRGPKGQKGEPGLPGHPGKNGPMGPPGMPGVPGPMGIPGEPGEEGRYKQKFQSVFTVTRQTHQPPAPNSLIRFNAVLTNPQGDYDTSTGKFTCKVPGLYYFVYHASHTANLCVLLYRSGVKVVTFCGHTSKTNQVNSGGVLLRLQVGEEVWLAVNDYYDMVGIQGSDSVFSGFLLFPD

Take `CCN1CCN(c2ccc(Nc3cc(N(C)C(=O)Nc4c(Cl)c(OC)cc(OC)c4Cl)ncn3)cc2)CC1` [BGJ398, 3-(2,6-Dichloro, 3,5-dimethoxy-phenyl)-1-{6-[4-(4-ethyl-piperazin-1-yl)-phenylamino]-pyrimidin-4-yl}-1-methyl-urea]: in data set [1] (setting [3]), the “Host response: % body weight change (mean ± SEM)” value is reported as −3.7 ± 3%, the “Host response: Mean body weight change (g ± SEM)” value is -0.8 ± 0.7 g and the “Host response: Survival (survivors/total)” value was 8/8. For the same compound, the T/C (commonly the ratio of treated to control) in data set [1] (single agent, 10 mg/kg, after 5 weeks of treatment) is listed as 33%.
As for “Rituximab: commercially available antibody, positive control for Clq binding”, the “Clq binding potency (EC50)” value in data set [2] is recorded as “about the same”.
